Results taken from ChEMBL document CHEMBL3991601, “The target landscape of clinical kinase drugs” (Science, 2017).
Calls of active or inactive are those of the source. Cut-off read from the data, not from the text of the source, for most assays here: actives have a measured Kd and inactives only a lower limit.

How the values were obtained:
[1] = molecular target: Serine/threonine-protein kinase SIK2 (Homo sapiens, UniProt Q9H0K1)
[2] = molecular target: Bone morphogenetic protein receptor type-1A (Homo sapiens, UniProt P36894)
Sequence of Bone morphogenetic protein receptor type-1A (P36894 whole entry): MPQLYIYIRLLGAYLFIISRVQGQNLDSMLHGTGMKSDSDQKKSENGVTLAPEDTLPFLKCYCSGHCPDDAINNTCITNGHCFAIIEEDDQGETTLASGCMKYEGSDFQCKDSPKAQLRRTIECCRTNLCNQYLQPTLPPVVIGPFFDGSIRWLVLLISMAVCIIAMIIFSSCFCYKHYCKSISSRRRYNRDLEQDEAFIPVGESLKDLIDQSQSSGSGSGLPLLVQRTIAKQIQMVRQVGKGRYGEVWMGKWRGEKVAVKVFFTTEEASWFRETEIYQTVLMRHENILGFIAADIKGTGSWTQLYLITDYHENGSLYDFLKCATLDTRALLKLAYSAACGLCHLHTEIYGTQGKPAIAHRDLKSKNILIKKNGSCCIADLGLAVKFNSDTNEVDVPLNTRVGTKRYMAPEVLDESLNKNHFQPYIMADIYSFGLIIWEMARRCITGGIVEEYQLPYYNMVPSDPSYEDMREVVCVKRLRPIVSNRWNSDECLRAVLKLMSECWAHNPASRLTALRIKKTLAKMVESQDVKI

[3] = molecular target: Serine/threonine-protein kinase 26 (Homo sapiens, UniProt Q9P289)
Sequence of Serine/threonine-protein kinase 26 (Q9P289 whole entry): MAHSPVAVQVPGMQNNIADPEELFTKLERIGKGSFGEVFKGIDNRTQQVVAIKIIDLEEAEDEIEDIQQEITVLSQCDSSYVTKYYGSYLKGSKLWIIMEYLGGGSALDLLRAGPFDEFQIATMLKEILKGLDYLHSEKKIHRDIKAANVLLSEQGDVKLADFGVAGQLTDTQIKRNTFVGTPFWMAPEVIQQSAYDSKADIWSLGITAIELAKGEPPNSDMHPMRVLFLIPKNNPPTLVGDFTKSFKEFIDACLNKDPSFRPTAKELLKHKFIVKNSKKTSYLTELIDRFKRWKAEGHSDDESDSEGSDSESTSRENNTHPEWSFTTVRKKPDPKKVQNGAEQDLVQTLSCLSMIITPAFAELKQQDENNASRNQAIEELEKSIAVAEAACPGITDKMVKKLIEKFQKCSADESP

[4] = molecular target: Protein kinase C beta type (Homo sapiens, UniProt P05771)
Sequence of Protein kinase C beta type (P05771 whole entry, canonical isoform): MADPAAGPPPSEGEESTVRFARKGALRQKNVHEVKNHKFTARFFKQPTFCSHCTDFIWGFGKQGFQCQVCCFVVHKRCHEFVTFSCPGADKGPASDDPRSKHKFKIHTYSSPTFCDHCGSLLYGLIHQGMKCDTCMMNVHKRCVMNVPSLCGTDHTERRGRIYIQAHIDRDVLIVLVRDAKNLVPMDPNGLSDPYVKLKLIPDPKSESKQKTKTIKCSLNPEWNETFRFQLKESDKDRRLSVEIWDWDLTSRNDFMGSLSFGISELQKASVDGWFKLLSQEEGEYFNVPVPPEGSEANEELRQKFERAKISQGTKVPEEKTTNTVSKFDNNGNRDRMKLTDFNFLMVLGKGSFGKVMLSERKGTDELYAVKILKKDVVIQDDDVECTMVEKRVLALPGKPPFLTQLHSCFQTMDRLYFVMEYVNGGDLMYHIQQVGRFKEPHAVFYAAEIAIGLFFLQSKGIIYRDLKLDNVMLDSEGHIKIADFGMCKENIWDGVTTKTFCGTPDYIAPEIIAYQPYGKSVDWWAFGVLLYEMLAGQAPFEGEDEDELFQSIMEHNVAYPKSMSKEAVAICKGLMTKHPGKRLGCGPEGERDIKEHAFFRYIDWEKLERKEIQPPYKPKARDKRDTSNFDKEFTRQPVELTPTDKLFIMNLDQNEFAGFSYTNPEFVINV

[5] = molecular target: S-adenosylmethionine synthase isoform type-2 (Homo sapiens, UniProt P31153)
Sequence of S-adenosylmethionine synthase isoform type-2 (P31153 whole entry, canonical isoform): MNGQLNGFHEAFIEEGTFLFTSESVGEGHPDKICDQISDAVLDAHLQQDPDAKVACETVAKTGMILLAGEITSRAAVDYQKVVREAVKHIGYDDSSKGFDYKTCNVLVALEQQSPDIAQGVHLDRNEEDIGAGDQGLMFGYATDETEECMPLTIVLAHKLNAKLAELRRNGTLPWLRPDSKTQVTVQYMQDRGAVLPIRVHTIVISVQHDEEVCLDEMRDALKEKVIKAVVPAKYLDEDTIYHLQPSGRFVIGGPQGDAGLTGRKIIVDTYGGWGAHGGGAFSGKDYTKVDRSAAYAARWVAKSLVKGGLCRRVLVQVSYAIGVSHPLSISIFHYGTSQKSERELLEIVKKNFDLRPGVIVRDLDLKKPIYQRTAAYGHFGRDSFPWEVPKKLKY

[6] = molecular target: Protein-tyrosine kinase 2-beta (Homo sapiens, UniProt Q14289)
Sequence of Protein-tyrosine kinase 2-beta (Q14289 whole entry): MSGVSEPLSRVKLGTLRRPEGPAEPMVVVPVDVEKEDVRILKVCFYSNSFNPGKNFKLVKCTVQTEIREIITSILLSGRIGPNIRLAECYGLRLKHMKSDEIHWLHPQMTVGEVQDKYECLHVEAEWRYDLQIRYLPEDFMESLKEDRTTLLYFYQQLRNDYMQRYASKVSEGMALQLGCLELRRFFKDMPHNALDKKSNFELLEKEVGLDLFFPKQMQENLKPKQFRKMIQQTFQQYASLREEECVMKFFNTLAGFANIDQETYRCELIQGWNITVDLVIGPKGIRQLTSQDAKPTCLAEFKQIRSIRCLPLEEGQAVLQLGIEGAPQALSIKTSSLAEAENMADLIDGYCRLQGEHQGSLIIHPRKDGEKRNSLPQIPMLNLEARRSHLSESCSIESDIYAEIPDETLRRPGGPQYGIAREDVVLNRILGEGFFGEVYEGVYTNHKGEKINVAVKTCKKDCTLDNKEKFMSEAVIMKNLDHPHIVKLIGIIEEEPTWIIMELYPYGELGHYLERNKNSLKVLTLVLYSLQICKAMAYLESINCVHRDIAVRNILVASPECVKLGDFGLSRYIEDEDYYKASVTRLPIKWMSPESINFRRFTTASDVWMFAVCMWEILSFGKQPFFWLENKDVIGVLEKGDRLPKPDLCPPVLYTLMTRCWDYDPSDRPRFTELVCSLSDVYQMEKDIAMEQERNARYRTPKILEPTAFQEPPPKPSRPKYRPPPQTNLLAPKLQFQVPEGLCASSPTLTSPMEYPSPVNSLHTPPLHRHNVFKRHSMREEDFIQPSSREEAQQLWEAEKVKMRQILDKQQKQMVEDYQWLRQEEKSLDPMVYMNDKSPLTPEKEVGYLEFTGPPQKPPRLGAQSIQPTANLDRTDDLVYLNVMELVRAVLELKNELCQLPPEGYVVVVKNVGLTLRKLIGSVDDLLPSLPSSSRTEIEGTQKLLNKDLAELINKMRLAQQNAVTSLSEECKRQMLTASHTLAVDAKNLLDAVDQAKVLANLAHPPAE

[7] = molecular target: T1, Serine/threonine-protein kinase ICK (Homo sapiens, UniProt Q9UPZ9)
T1 sequence (Q9UPZ9 whole entry): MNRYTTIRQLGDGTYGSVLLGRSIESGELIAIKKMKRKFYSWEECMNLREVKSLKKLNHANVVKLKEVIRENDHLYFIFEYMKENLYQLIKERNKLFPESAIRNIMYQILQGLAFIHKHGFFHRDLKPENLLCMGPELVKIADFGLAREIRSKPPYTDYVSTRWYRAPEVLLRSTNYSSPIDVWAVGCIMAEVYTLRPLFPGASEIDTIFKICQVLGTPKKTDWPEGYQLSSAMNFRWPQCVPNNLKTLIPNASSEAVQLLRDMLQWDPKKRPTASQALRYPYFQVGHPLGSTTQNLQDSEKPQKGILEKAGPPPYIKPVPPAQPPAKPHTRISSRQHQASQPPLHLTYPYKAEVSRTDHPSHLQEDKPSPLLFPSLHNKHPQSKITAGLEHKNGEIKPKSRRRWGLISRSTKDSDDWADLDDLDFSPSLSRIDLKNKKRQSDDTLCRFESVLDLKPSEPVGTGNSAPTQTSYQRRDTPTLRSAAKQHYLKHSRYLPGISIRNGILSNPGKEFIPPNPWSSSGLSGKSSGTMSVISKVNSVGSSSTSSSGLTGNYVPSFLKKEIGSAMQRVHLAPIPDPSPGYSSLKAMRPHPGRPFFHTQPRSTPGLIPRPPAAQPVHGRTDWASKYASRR

[8] = molecular target: Glycogen synthase kinase-3 alpha (Homo sapiens, UniProt P49840)
Sequence of Glycogen synthase kinase-3 alpha (P49840 whole entry): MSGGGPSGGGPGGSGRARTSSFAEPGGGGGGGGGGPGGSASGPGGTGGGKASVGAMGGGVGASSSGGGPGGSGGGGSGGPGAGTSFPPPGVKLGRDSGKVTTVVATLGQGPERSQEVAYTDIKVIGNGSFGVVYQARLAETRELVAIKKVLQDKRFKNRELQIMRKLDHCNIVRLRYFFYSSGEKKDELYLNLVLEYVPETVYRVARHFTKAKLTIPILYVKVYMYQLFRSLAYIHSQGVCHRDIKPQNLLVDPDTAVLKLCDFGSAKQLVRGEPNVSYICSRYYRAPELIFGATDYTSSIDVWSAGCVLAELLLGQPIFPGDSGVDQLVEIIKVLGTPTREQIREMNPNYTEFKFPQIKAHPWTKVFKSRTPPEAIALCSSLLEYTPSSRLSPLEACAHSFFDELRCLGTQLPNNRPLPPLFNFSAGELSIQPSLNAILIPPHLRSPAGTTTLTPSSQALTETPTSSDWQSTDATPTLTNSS

[9] = molecular target: T2, Mitogen-activated protein kinase kinase kinase 5 (Homo sapiens, UniProt Q99683)
T2 sequence (Q99683 whole entry): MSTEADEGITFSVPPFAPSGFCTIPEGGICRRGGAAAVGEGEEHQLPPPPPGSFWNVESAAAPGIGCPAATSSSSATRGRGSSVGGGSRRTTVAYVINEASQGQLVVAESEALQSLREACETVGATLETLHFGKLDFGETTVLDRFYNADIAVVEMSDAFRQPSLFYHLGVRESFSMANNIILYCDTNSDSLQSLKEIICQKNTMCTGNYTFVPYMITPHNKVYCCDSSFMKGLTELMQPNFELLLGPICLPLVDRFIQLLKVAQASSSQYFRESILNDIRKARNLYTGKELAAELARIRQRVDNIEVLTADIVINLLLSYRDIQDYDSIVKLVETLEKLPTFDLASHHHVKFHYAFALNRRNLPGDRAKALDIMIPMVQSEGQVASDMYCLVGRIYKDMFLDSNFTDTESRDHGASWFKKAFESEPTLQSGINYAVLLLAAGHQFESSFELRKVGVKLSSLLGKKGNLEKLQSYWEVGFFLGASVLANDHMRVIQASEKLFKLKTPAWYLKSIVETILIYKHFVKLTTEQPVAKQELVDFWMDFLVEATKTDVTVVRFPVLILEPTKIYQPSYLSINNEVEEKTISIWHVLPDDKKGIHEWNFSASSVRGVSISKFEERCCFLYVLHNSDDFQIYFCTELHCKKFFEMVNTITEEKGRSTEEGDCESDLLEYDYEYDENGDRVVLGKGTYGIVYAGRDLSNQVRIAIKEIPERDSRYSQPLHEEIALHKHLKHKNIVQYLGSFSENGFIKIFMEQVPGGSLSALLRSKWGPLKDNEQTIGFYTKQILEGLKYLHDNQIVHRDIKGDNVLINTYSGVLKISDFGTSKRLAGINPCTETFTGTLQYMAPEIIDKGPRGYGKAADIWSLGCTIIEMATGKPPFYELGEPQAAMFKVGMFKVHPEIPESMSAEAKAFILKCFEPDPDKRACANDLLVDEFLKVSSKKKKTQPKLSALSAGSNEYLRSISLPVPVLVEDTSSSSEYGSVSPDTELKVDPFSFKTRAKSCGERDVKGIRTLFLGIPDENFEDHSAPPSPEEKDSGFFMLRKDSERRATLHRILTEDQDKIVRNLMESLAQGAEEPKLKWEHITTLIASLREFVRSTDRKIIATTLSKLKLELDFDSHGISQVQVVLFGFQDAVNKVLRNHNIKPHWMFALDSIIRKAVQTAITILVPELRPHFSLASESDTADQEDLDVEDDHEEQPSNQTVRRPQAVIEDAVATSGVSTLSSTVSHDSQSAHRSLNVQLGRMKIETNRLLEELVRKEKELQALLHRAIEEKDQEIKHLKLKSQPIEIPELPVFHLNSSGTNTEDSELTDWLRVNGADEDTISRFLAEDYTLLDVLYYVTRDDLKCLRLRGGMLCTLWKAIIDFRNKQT

[10] = molecular target: MAP kinase-activated protein kinase 2 (Homo sapiens, UniProt P49137)
Sequence of MAP kinase-activated protein kinase 2 (P49137 whole entry): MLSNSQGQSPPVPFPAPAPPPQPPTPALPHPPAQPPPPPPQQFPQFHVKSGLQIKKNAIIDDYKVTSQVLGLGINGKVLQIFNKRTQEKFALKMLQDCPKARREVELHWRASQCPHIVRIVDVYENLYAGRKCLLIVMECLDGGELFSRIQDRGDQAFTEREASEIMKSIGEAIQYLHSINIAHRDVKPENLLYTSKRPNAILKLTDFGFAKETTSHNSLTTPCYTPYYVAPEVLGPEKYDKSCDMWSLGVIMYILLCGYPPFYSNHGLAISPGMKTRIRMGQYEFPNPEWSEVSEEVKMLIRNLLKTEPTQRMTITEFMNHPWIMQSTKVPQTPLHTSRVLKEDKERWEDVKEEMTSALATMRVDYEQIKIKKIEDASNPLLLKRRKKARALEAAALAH

[11] = molecular target: T3, Serine/threonine-protein kinase 4 (Homo sapiens, UniProt Q13043)
T3 sequence (Q13043 whole entry): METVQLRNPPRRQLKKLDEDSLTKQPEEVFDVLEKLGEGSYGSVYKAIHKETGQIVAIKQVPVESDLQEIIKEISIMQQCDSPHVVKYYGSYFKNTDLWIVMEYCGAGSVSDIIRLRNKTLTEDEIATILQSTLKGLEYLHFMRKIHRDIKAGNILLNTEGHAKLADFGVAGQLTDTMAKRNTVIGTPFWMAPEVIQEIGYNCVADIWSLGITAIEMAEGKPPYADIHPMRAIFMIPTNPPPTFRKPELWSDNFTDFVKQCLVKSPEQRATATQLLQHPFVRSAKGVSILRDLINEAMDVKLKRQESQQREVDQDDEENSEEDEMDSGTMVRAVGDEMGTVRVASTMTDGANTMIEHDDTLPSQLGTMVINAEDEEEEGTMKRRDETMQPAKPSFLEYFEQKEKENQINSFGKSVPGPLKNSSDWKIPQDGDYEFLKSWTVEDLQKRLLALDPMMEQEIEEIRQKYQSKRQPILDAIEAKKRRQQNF
Note: in the data inactive means no Kd found up to 30 µM.

Sequence of Serine/threonine-protein kinase SIK2 (Q9H0K1 whole entry): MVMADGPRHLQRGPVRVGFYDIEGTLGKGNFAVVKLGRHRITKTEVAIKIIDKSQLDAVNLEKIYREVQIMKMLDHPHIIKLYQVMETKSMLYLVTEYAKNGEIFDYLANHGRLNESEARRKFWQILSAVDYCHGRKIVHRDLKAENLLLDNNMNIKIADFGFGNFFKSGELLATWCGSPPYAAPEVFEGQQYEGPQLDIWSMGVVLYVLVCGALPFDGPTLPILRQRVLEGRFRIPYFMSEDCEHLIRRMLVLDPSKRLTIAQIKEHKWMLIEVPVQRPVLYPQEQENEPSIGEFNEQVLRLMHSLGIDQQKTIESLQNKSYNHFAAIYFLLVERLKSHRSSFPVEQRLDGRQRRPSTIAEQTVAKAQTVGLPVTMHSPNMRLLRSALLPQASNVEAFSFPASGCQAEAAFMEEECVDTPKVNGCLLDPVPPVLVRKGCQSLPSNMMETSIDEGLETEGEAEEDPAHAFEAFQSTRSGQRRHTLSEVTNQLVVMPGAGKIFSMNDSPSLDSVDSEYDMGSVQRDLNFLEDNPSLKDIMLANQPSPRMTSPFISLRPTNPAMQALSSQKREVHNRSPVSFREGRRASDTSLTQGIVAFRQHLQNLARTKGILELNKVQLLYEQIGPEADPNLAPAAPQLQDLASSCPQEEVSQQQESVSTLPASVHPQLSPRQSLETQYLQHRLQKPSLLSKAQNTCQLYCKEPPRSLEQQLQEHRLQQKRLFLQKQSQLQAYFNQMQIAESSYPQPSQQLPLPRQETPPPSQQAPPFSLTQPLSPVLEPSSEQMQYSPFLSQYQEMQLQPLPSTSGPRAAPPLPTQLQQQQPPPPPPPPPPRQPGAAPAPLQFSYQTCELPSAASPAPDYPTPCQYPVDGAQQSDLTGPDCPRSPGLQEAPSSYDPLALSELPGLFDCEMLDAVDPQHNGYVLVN

SMILES | Kd [1] | Kd [2] | Kd [3] | Kd [4] | Kd [5] | Kd [6] | Kd [7] | Kd [8] | Kd [9] | Kd [10] | Kd [11]
COc1cc2nccc(Oc3ccc(NC(=O)C4(C(=O)Nc5ccc(F)cc5)CC4)cc3)c2cc1OC [CABOZANTINIB] | > 30 µM (inactive) | > 30 µM (inactive) | > 30 µM (inactive) | > 30 µM (inactive) | > 30 µM (inactive) | > 30 µM (inactive) | > 30 µM (inactive) | > 30 µM (inactive) | > 30 µM (inactive) | > 30 µM (inactive) | > 30 µM (inactive)
O=C(Nc1ccc(OC(F)(F)F)cc1)c1sccc1NCc1ccnc2ccccc12 [OSI-930] | > 30 µM (inactive) | > 30 µM (inactive) | > 30 µM (inactive) | > 30 µM (inactive) | > 30 µM (inactive) | > 30 µM (inactive) | > 30 µM (inactive) | > 30 µM (inactive) | > 30 µM (inactive) | > 30 µM (inactive) | > 30 µM (inactive)
O=C(NOC[C@H](O)CO)c1ccc(F)c(F)c1Nc1ccc(I)cc1F [MIRDAMETINIB] | > 30 µM (inactive) | > 30 µM (inactive) | > 30 µM (inactive) | > 30 µM (inactive) | – | > 30 µM (inactive) | > 30 µM (inactive) | > 30 µM (inactive) | > 30 µM (inactive) | > 30 µM (inactive) | > 30 µM (inactive)
Cc1cc(C(=O)Nc2cc(Oc3ccc4nc(NC(=O)C5CC5)cn4n3)ccc2C)n(C)n1 [TAK-593] | > 30 µM (inactive) | > 30 µM (inactive) | > 30 µM (inactive) | > 30 µM (inactive) | – | > 30 µM (inactive) | > 30 µM (inactive) | > 30 µM (inactive) | > 30 µM (inactive) | > 30 µM (inactive) | > 30 µM (inactive)
CCOc1ccn(-c2ccc(F)cc2)c(=O)c1C(=O)Nc1ccc(Oc2ccnc(N)c2Cl)c(F)c1 [BMS-777607] | > 30 µM (inactive) | > 30 µM (inactive) | > 30 µM (inactive) | > 30 µM (inactive) | > 30 µM (inactive) | > 30 µM (inactive) | > 30 µM (inactive) | > 30 µM (inactive) | > 30 µM (inactive) | > 30 µM (inactive) | –
CCc1nc(C(N)=O)c(Nc2ccc(N3CCC(N4CCN(C)CC4)CC3)c(OC)c2)nc1NC1CCOCC1 [GILTERITINIB] | > 30 µM (inactive) | – | 1.14 µM (active) | > 30 µM (inactive) | > 30 µM (inactive) | 0.51 µM (active) | > 30 µM (inactive) | > 30 µM (inactive) | > 30 µM (inactive) | > 30 µM (inactive) | > 30 µM (inactive)
FC(F)(F)c1ccc(CNc2ccc(Cc3c[nH]c4ncc(Cl)cc34)cn2)cn1 [PEXIDARTINIB] | > 30 µM (inactive) | > 30 µM (inactive) | > 30 µM (inactive) | > 30 µM (inactive) | – | > 30 µM (inactive) | > 30 µM (inactive) | > 30 µM (inactive) | > 30 µM (inactive) | > 30 µM (inactive) | > 30 µM (inactive)
CC1(COc2ccc3c(c2)ncn3-c2ccc3cccc(N4CCC(N)CC4)c3n2)COC1 [CRENOLANIB] | – | > 30 µM (inactive) | 0.013 µM (active) | > 30 µM (inactive) | > 30 µM (inactive) | > 30 µM (inactive) | > 30 µM (inactive) | > 30 µM (inactive) | > 30 µM (inactive) | > 30 µM (inactive) | 0.702 µM (active)
CN1CCN(c2nc(C3=C(c4c[nH]c5ccccc45)C(=O)NC3=O)c3ccccc3n2)CC1 [SOTRASTAURIN] | > 30 µM (inactive) | > 30 µM (inactive) | > 30 µM (inactive) | – | > 30 µM (inactive) | > 30 µM (inactive) | 6.69 µM | 1.2 µM (active) | > 30 µM (inactive) | > 30 µM (inactive) | > 30 µM (inactive)
O=S(=O)(c1cccc2c(O)nccc12)N1CCCNCC1 [HYDROXYFASUDIL] | > 30 µM (inactive) | > 30 µM (inactive) | > 30 µM (inactive) | > 30 µM (inactive) | > 30 µM (inactive) | > 30 µM (inactive) | > 30 µM (inactive) | > 30 µM (inactive) | > 30 µM (inactive) | – | > 30 µM (inactive)
